≈ marks a conversion by molar mass, not a printed value. Where a SMILES comes first, the peptide text is derived from it. Bridges are numbered along the chain shown (N, C = ends).
How the values were obtained:
L. monocytogenes EGDe = type: cell-based, Listeria monocytogenes; conditions: microtiter plate, Listeria enrichment broth, 37 °C, OD600; lowest concentration inhibiting growth after 18 h
Protocol: The BCA assay was used according to the manufactures instructions to determine the concentration of the peptides. The MIC of the peptides was determined using a microtiter plate. Briefly, L. monocytogenes EGDe was inoculated into Listeria enrichment broth (LEB) and incubated overnight at 37 °C. The culture was inoculated into fresh LEB and incubated until an OD600 of 0.1 was reached. A series of peptide concentrations was prepared and 50 µL of each added per well, followed by the addition of 150 µL culture. The controls were ddH2O containing 0.1% (v/v) TFA with 150 µL culture or media. Microtiter plates were incubated at 37 °C and OD600 readings were taken at T0, T5 and T18 (hours). The MIC was determined as the lowest peptide concentration required to inhibit the growth of L. monocytogenes EGDe after 18 h.

[1] = Plasma stability assay (loss of antimicrobial activity); type: in vitro ADME, human; conditions: 37 °C, 3 days, agar well diffusion vs L. monocytogenes EGDe, zone diameter (ImageJ)
Protocol: Human blood was collected in tubes with potassium and EDTA as anticoagulant, centrifuged at 500 × g (10 min, 25 °C) and the plasma collected. Different plasma concentrations (0%, 40% and 80%, v/v) were prepared by diluting with sterile ultrapure water. Nisin A, plantaricin 423 and bacST4SA, each suspended in sterile ultrapure water, were added to the plasma to final concentrations of 25 µM, 50 µM and 100 µM, sterile ultrapure water was used as control. Incubation was at 37 °C for 3 days and bacteriocin activity was tested using the agar well diffusion assay. Listeria monocytogenes EGDe was used as target organism. Digital images of the plates were taken after incubation and activity quantified by measuring the diameter of the zones using ImageJ software (version 1.5; https://imagej.nih.gov/ij/).

Caco-2 cells = experiment: LDH release assay, Caco-2; type: cell-based, human; conditions: 24 h
Protocol: (§1) For viability and cytotoxicity studies, cells were seeded in 96-well flat-bottom culture plates (1 × 10^4 cells/well). To determine migration of nisin A, plantaricin 423 and bacST4SA across the gastrointestinal epithelial and vascular endothelial barriers, HUVEC and Caco-2 cells were grown on an 8 µm pore size tissue culture insert, as shown in Fig. 1. All cell culture experiments were done in triplicate and have been repeated more than three times.
(§2) HUVEC and Caco-2 cells were exposed to three different concentrations (25 µM, 50 µM and 100 µM) nisin A, plantaricin 423 and bacST4SA and the presence of extracellular LDH determined using the LDH release assay kit. Sterile ultrapure water was used as negative control (referred to as spontaneous LDH activity) and lysis buffer (10X) was used as positive control (referred to as maximum LDH activity). After incubating the cultures in the presence of the peptides for 24 h at 37 °C, culture supernatants were pipetted into a 96-well plate. Reaction mixture was added to the supernatants and plates were incubated at 25 °C for 30 min. Absorbance was measured at 490 nm and 680 nm, respectively. The percentage cytotoxicity was calculated as follows (1):1 %Cytotoxicity=(Compound−treatedLDHactivity)−(SpontaneousLDHactivity)/MaximumLDHactivity−SpontaneousLDHactivity×100

HUVEC = experiment: LDH release assay, HUVEC; type: cell-based, human; conditions: 24 h
Protocol: as §1, §2

In the case of `CC(C)C[C@@H]1NC(=O)[C@H](Cc2c[nH]cn2)NC(=O)[C@H](CO)NC(=O)[C@H](C(C)C)NC(=O)[C@H](CO)NC(=O)[C@@H](NC(=O)[C@H](CO)NC(=O)[C@H](Cc2ccccc2)NC(=O)[C@H](C)NC(=O)[C@H](CCC(N)=O)NC(=O)CNC(=O)[C@H](Cc2c[nH]c3ccccc23)NC(=O)[C@H](CC(N)=O)NC(=O)[C@@H](NC(=O)[C@H](CO)NC(=O)[C@@H]2CSSC[C@H](NC(=O)[C@@H](NC(=O)[C@@H](NC(=O)CNC(=O)[C@H](CC(N)=O)NC(=O)CNC(=O)[C@H](Cc3ccc(O)cc3)NC(=O)[C@H](Cc3ccc(O)cc3)NC(=O)[C@@H](N)CCCCN)C(C)C)[C@@H](C)O)C(=O)NCC(=O)N[C@@H](CCCCN)C(=O)N[C@@H](Cc3c[nH]cn3)C(=O)N[C@@H](CO)C(=O)N2)C(C)C)CSSC[C@@H](C(=O)O)NC(=O)[C@H](CCCCN)NC(=O)CNC(=O)[C@H](Cc2c[nH]cn2)NC(=O)CNC(=O)[C@H](Cc2ccccc2)NC(=O)[C@H](CC(N)=O)NC(=O)[C@H](C)NC1=O` [plantaricin 423] (H-KYYGNGVTCGKHSCSVNWGQAFSCSVSHLANFGHGKC-OH; disulfide 9-14, 24-37; N-terminus and C-terminus assumed), the MIC (L. monocytogenes EGDe) is reported as 12 µM (≈ 47.2 µg/mL), the “decrease in antimicrobial activity” value ([1]; 40% (v/v) human EDTA plasma in ultrapure water, 25 µM peptide) is reported as 40% and the “decrease in antimicrobial activity” value ([1]; 40% (v/v) human EDTA plasma in ultrapure water, 50 µM peptide) is reported as 30%. The “decrease in antimicrobial activity” value ([1]; 40% (v/v) human EDTA plasma in ultrapure water, 100 µM peptide) was 17%, the “decrease in antimicrobial activity” value ([1]; 80% (v/v) human EDTA plasma in ultrapure water, 25 µM peptide) was 60% and the “decrease in antimicrobial activity” value ([1]; 80% (v/v) human EDTA plasma in ultrapure water, 50 µM peptide) was 39%. The “decrease in antimicrobial activity” value ([1]; 80% (v/v) human EDTA plasma in ultrapure water, 100 µM peptide) was 29%, the “cytotoxicity level (LDH release)” value (Caco-2 cells; Caco-2, 100 µM, 37 °C, percentage of maximum LDH release (lysis buffer = 100%)) was 17% and the “toxicity (LDH release)” value (Caco-2 cells; Caco-2, concentrations up to 100 µM) was “minimal toxicity”. For the same compound, the “cytotoxicity level (LDH release)” value (HUVEC; 100 µM, 37 °C, percentage of maximum LDH release (lysis buffer = 100%)) was 21% and the “toxicity (LDH release)” value (HUVEC; concentrations up to 100 µM) was “minimal toxicity”.
